A short description of data set [1]: Intracellular unbound drug accumulation ratio (Kpuu) in suspended HH. It counts as in vitro ADME, human. Conditions: human, suspended human hepatocytes, suspended HH. The method, then:
Kpuu was determined as previously described ([7],[18]) using Eq. (1):
1 Kpuu=Kp∙fu,cell/fu,medium where Kp is the steady-state cellular uptake, and fu,cell the fraction of unbound compound in the cell, determined as described below. The fraction unbound of the compound in the medium (fu,medium) was equal to 1 as no serum proteins or other drug binding components were added to the incubation media.

A short description of data set [2]: Fraction unbound to microsomes (fu,mic), equilibrium dialysis, HLM 0.2 mg/mL. The note with it: both, human.
Data set [3] can be described thus: Fraction unbound in the cell (fu,cell), homogenization method/equilibrium dialysis. It is filed as in vitro ADME, human. The note with it: HH homogenate; for fraction unbound at 0.5 μM / fraction unbound at 4 h, 0.5 μM: human, human hepatocyte cell homogenate; for fraction unbound at 4 h, 0.5 μM: RO compounds.
Experimental: fu,cell was measured in cassette mode as previously described, but with minor modifications ([24]). Briefly, frozen cell pellets were thawed on ice and diluted to 10 million cells/mL in HBSS containing 10 mM HEPES. The suspension was homogenized using a mini bead beater (Precellys, EQ02520-300-RD000.0, bead no. VK01) for 2 cycles of 10 s with an intermittent time of 30 s. Compounds were added to the cell homogenate at a final concentration of 0.5 μM and the spiked homogenate was transferred to a dialysis chamber (Rapid Equilibrium Dialysis Device, Thermo Fisher Scientific). HBSS buffered with 10 mM HEPES was placed in the receptor compartment. Samples of spiked cell homogenate were placed at 4 and 37°C for the duration of the experiment for recovery and stability calculations. […] The unbound fraction in the cell homogenate (fu,hom) was determined according to Eq. (3):3 fu,hom=Cbuffer/Chom and the fraction of unbound compound in the cell (fu,cell) was calculated by correcting for homogenate dilution according to Eq. (4):4 fu,cell=1/D∙1/fu,hom−1+1 where the dilution constant D was calculated using Eq. (5), and assuming the Vcell to be equal to 6.5 μL/mg protein ([23]). Phom is the protein concentration of the cell homogenate quantified using the BCA assay.5 D=1/Vcell∙Phom
The nature of data set [4]: Steady-state cellular uptake (Kp) in suspended HH. It counts as in vitro ADME. The note with it: human, suspended human hepatocytes; for Kp at 0.5 μM: azole series; for Kp at 5 min, 0.5 μM: RO compounds, parameters matched to the IC50 assay. The protocol: The Kp in suspended HH was measured similarly to previous reports with some modifications ([7],[18]). Briefly, cells were rinsed twice with […] 10 mM HEPES. One hundred microliters of cell suspension (5 × 10^6 cells/mL) was added to a conical 96-well plate, and 100 μL of 1 μM drug solutions in Hank’s buffered salt solution (HBSS) buffered with 10 mM HEPES was added (resulting in a 0.5 μM final concentration). All incubations were performed in triplicates on up to three independent occasions. Full-time curves were established at 1, 3, 7.5, 15, 30, and 45 min to determine Kp at equilibrium. For single time point measurements, the incubation time was matched to the CYP inhibition assays. A sample of the medium was removed after centrifugation in a pre-cooled centrifuge at 4°C (100×g, 5 min), and ten-fold diluted with a mixture of acetonitrile and water (60:40) containing the internal standard for determination of Cmedium. The remaining supernatant was removed by aspiration and cells were washed twice with ice-cold buffer. The intracellular compound was extracted using the acetonitrile to water to internal standard mixture for determination of the amount of drug in the cells (Acell). Protein content (Pcell) was quantified using the BCA assay in representative wells to establish the cellular volume (Vcell), assuming 6.5 μL/mg protein ([23]). Finally, Kp was calculated using Eq. (2)2 Kp=Acell/Vcell∙Pcell/Cmedium

The next data set in a line: pKa of RO compounds. It counts as physicochemical. Conditions: method not stated. The source says: Table II Properties of the RO Discovery Compound Series and Results in HLM and Suspended HH | column: pKa
The next data set deals with CYP2C9. Put plainly: CYP2C9 inhibition assay in HLM and HH (diclofenac). It is filed as biochemical, human. The note with it: diclofenac as substrate. The method, then: After the addition of 20 μL of 10 mM NADPH, the plate was incubated for 5 min. The reaction was stopped by adding 200 μL of acetonitrile containing an internal standard. After centrifugation of 10 min at 6200×g, the concentration of the substrate in the samples was determined by LC-MS (Sciex API4000, see S6 for LC-MS parameters).
For HH, 50 μL of a suspension of cryopreserved HH (3 × 10^6 cells/mL) were added to a 96-well round bottom plate and pre-incubated for 20 min in Williams E medium (without FBS). Fifty microliters of a × 3 concentrated test compound-solution and 50 μL of × 3 concentrated substrate (diclofenac for CYP2C9, midazolam for CYP3A4 and tacrine for CYP1A2) were added and the plate was incubated on a shaker at 37°C, 5% CO2, and 900 rpm. Incubations were stopped after 5 min by transferring 100 μL of the suspension to a fresh plate and adding 100 μL of acetonitrile containing the internal standard and then analyzed as above.

Another data set can be described thus: Papp of RO compounds. It is filed as in vitro ADME. Conditions: not told, method not stated. From the text:
Table II Properties of the RO Discovery Compound Series and Results in HLM and Suspended HH | column: Papp (× 10^−6 cm/s)

[5] abbreviates: azole series (itraconazole 24 h dialysis).

Turning to `CCC(C)n1ncn(-c2ccc(N3CCN(c4ccc(OCC5COC(Cn6cncn6)(c6ccc(Cl)cc6Cl)O5)cc4)CC3)cc2)c1=O` (stereo not shown) [Itraconazole, reference compound], the Kp uu in data set [1] (azole series) was found to be 7.5 ± 6.3. The molecule further displayed a fraction unbound at 0.5 μM in data set [2] (human liver microsomes) of 0.21 ± 0.13. Besides, the “fu,cell” value in data set [3] (setting [5]) was found to be 0.003 ± 0.002. The molecule further returned a Kp at 0.5 μM in data set [4] of 2720 ± 1570.
Consider `CC(=O)N1CCN(c2ccc(OCC3COC(Cn4ccnc4)(c4ccc(Cl)cc4Cl)O3)cc2)CC1` (stereo not shown) [Ketoconazole, reference compound], for which the free fraction (fraction unbound) at 0.5 μM in data set [2] (microsomes) was 0.32 ± 0.12; in data set [3] (setting [5]), 0.004 ± 0.001.
With `CC[C@@H]([C@H](C)O)n1ncn(-c2ccc(N3CCN(c4ccc(OC[C@@H]5CO[C@@](Cn6cncn6)(c6ccc(F)cc6F)C5)cc4)CC3)cc2)c1=O` [Posaconazole, reference compound], the Kp uu in data set [1] (azole series) was 37.6 ± 12.8. Besides, the fraction unbound at 0.5 μM in data set [2] (human liver microsomes) came to 0.21 ± 0.11; in data set [3] (setting [5]), 0.005 ± 0.003. In data set [4], this molecule returned a Kp at 0.5 μM of 6930 ± 1240.
Turning to `Cc1cccc(S(=O)(=O)NC(=O)Nc2cc(Br)cc(N)n2)c1` [RO01], the Kp uu in data set [1] (RO compounds) came out at 0.357 ± 0.003. In the data set “pKa of RO compounds”, the pKa was found to be 5.41. For the same molecule, the free fraction (fraction unbound) at 4 h, 0.5 μM is 0.42 ± 0.06 in data set [2] (human liver microsomes) and 0.0149 ± 0.0003 in data set [3]. For the same molecule, the “difference of IC50,app between HH and HLM” value (“difference” below) in the data set on CYP2C9 is listed as “identical”. This molecule showed a Kp at 5 min, 0.5 μM in data set [4] of 24 ± 2.2. The Papp in “Papp of RO compounds” is 10 ×10⁻⁶ cm/s.
Consider `Cc1cccc2cc(S(=O)(=O)NC(=O)Nc3ncc(Br)s3)sc12` [RO02], for which the Kp uu in data set [1] (RO compounds) came to 0.0613 ± 0.0002. Besides, the pKa in “pKa of RO compounds” is 3.14. Besides, the fraction unbound at 4 h, 0.5 μM in data set [2] (human liver microsomes) is 0.36 ± 0.09; in data set [3], 0.0013 ± 7e-05. This molecule also displayed a Kp at 5 min, 0.5 μM in data set [4] of 47.3 ± 1.1. In the data set “Papp of RO compounds”, this molecule registered a Papp of 2 ×10⁻⁶ cm/s.
With `COCc1oc(S(=O)(=O)NC(=O)Nc2ncc(Br)s2)cc1C` [RO03], the Kp uu in data set [1] (RO compounds) worked out at 0.3 ± 0.08. Moreover, in the data set “pKa of RO compounds”, the pKa is 2.91. Moreover, the fraction unbound at 4 h, 0.5 μM turned out to be 0.41 ± 0.03 in data set [2] (human liver microsomes) and 0.017 ± 0.001 in data set [3]. For the same molecule, the “difference” value in the data set on CYP2C9 was “identical”. Further, in data set [4], the Kp at 5 min, 0.5 μM came out at 17.9 ± 8.9. The molecule further registered a Papp in “Papp of RO compounds” of 9 ×10⁻⁶ cm/s.
Turning to `COCc1oc(S(=O)(=O)NC(=O)Nc2nc(C)c(Br)s2)cc1C` [RO04], the Kp uu in data set [1] (RO compounds) is 0.46 ± 0.65. Also, the pKa in the data set “pKa of RO compounds” amounted to 2.8. The fraction unbound at 4 h, 0.5 μM is 0.45 ± 0.11 in data set [2] (human liver microsomes) and 0.02 ± 0.01 in data set [3]. Moreover, the “difference” value with CYP2C9 was “identical”. The Kp at 5 min, 0.5 μM in data set [4] turned out to be 27.6 ± 26.1. The Papp in “Papp of RO compounds” was 13 ×10⁻⁶ cm/s.
As for `O=C(Nc1ncc(Br)s1)NS(=O)(=O)c1cc2cccc(Cl)c2s1` [RO05], the Kp uu in data set [1] (RO compounds) stood at 0.039 ± 0.003. In addition, the pKa in the data set “pKa of RO compounds” stood at 2.76. Besides, the fraction unbound at 4 h, 0.5 μM in data set [2] (human liver microsomes) was 0.23 ± 0.02; in data set [3] it was 0.0021 ± 0.0003. In addition, the Kp at 5 min, 0.5 μM in data set [4] worked out at 18.5 ± 4.4. In the data set “Papp of RO compounds”, the Papp is 2 ×10⁻⁶ cm/s.
On to `Cn1c(S(=O)(=O)NC(=O)Nc2ncc(Br)s2)cc2ccccc21` [RO06], for which the Kp uu in data set [1] (RO compounds) turned out to be 0.24 ± 0.1. The pKa in “pKa of RO compounds” was 2.8. The fraction unbound at 4 h, 0.5 μM in data set [2] (human liver microsomes) came to 0.36 ± 0.11; in data set [3] it was 0.0039 ± 0.0003. Further, the Kp at 5 min, 0.5 μM in data set [4] was determined as 61.6 ± 38.6. The Papp in “Papp of RO compounds” stood at 3 ×10⁻⁶ cm/s.
Take `COc1cc(C)c(-c2sc(S(=O)(=O)NC(=O)Nc3ncc(Br)s3)cc2C)cn1` [RO07]: in data set [1] (RO compounds), the Kp uu worked out at 0.16 ± 0.01. Further, the pKa in the data set “pKa of RO compounds” was 3.17. Moreover, the fraction unbound at 4 h, 0.5 μM in data set [2] (human liver microsomes) turned out to be 0.84 ± 0.06; in data set [3] it was 0.00392 ± 3e-05. In data set [4], this molecule came in with a Kp at 5 min, 0.5 μM of 41.9 ± 4.8. The same molecule had a Papp in the data set “Papp of RO compounds” of 4 ×10⁻⁶ cm/s.
Regarding `Cc1cccc(S(=O)(=O)NC(=O)Nc2snc(C)c2Br)c1` [RO08], the Kp uu in data set [1] (RO compounds) was 0.21 ± 0.05. This molecule showed a pKa in the data set “pKa of RO compounds” of 2.66. The fraction unbound at 4 h, 0.5 μM in data set [2] (human liver microsomes) is 0.41 ± 0.09; in data set [3], 0.009 ± 0.004. The Kp at 5 min, 0.5 μM in data set [4] was determined as 22.2 ± 4.3. This molecule yielded a Papp in “Papp of RO compounds” of 22 ×10⁻⁶ cm/s.

The record behind these values is publication PMC6581936, “Impact of Intracellular Concentrations on Metabolic Drug-Drug Interaction Studies” (The AAPS Journal, 2019).
